Measured values as given in patent publication US20050090522A1 (priority 2001, published 2005).
Where two headings read alike, the source gives them in different places.

Tested on: HIV-1
Assay: HIV-1 single-round infectious luciferase reporter virus (pseudotype) assay in HeLa CD4 CCR5 cells
Assay type: cell-based
Outline: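 Reporter pseudovirus produced in 293 cells infected HeLa cells expressing CD4/CCR5 at MOI ~0.01, with compound present at <10 μM final. Infection was quantified as luciferase luminescence after 72 h.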

[1] = Human immunodeficiency virus 1, HeLa-CD4/CCR5, read-out: EC50 Group from TABLE 1, HeLa CD4 CCR5 cells, single-round infectious luciferase reporter virus
[2] = Human immunodeficiency virus 1, HeLa-CD4/CCR5, read-out: EC50 Group from Table 1, Table 4, HeLa CD4 CCR5 cells, single-round luciferase reporter virus
[3] = Human immunodeficiency virus 1, HeLa-CD4/CCR5, read-out: EC50 Group from Table 1, Table 2-1, HeLa CD4 CCR5 cells, single-round luciferase reporter virus

Structure (SMILES) | EC50 [1] | also measured
COc1cnc(-c2cnc(NC(C)=O)cn2)c2[nH]cc(C(=O)C(=O)N3CCN(C(=O)c4ccccc4)CC3)c12 [Example 99, 1-(benzoyl)-4-[(4-methoxy-7-(2-acetylamino-pyrazin-5-yl)-6-azaindol-3-yl)-oxoacetyl]piperazine] | < 1 µM | 
C[C@@H]1CN(C(=O)c2ccccc2)CCN1C(=O)C(=O)c1c[nH]c2c(C(=O)c3cccs3)ccnc12 [Example 168, 1-benzoyl-3-(R)-methyl-4-[(7-(2-thienylcarbonyl)-4-azaindol-3-yl)-oxoacetyl]piperazine] |  | EC50 [2]: < 1 µM
COc1cnc(-n2ccc(-c3ccc(C(F)(F)F)cc3)n2)c2[nH]cc(C(=O)C(=O)N3CCN(C(=O)c4ccccc4)CC3)c12 [Example 288, 1-benzoyl-4-[(4-methoxy-7-(3-(4-trifluoromethyl-phenyl)-pyrazol-1-yl)-6-azaindol-3-yl)-oxoacetyl]piperazine] | < 1 µM | 
C[C@@H]1CN(C(=O)c2ccccc2)CCN1C(=O)C(=O)c1c[nH]c2c(-c3cncnc3)ncc(F)c12 [Example 41, 1-benzoyl-3-(R)-methyl-4-[(4-fluoro-7-(pyrimidin-5-yl)-6-azaindol-3-yl)-oxoacetyl]piperazine] | < 1 µM | 
COCc1ncn(-c2ncc(OC)c3c(C(=O)C(=O)N4CCN(C(=O)c5ccccc5)CC4)c[nH]c23)n1 [Example 323] | < 1 µM | 
COc1cnc(-n2cnc(CCC(=O)O)c2)c2[nH]cc(C(=O)C(=O)N3CCN(C(=O)c4ccccc4)CC3)c12 [Example 329] | < 1 µM | 
CCOC(=O)c1ccc(OCc2ccn(-c3ncc(OC)c4c(C(=O)C(=O)N5CCN(C(=O)c6ccccc6)CC5)c[nH]c34)n2)cc1 [Example 285, 1-benzoyl-4-[(4-methoxy-7-(3-(4-ethoxycarbonyl-phenyl)oxymethyl-pyrazol-1-yl)-6-azaindol-3-yl)-oxoacetyl]piperazine] | < 1 µM | 
C[C@@H]1CN(C(=O)c2ccccc2)CCN1C(=O)C(=O)c1c[nH]c2c(-c3cncc(NC(=O)C4OC4C(=O)O)n3)nccc12 (stereo in doubt) [Example 296, 3-(6-{3-[2-(4-Benzoyl-2-methyl-piperazin-1-yl)-2-oxo-acetyl]-1H-pyrrolo[2,3-c]pyridin-7-yl}-pyrazin-2-ylcarbamoyl)-oxirane-2-carboxylic acid] | < 1 µM | 
COc1cnc(-c2cnccn2)c2[nH]cc(C(=O)C(=O)N3CCN(C(=O)c4cccnc4)[C@H](C)C3)c12 [Example 270] |  | EC50 [3]: < 1 µM
COc1cnc(-n2cnc(NCc3cccnc3)n2)c2[nH]cc(C(=O)C(=O)N3CCN(C(=O)c4ccccc4)[C@H](C)C3)c12 [Example 261, (R)-1-benzoyl-2-methyl-4-[(4-methoxy-7-(3-(3-pyridinemethylamino)-1,2,4-triazol-1-yl)-6-azaindol-3-yl)-oxoacetyl]piperazine] |  | EC50 [3]: < 1 µM
C[C@@H]1CN(C(=O)c2ccccc2)CCN1C(=O)C(=O)c1c[nH]c2c(-c3cnc(O)cn3)nccc12 [Example 157] | < 1 µM | 
O=C(Nc1cccnc1)c1ncc(F)c2c(C(=O)C(=O)N3CCN(C(=O)c4ccccc4)CC3)c[nH]c12 [Example 147] | < 1 µM | 
COc1cnc(-c2cc3ccncc3o2)c2[nH]cc(C(=O)C(=O)N3CCN(C(=O)c4ccccc4)CC3)c12 [Example 104, 1-benzoyl-4-[(4-methoxy-7-(6-aza-benzofuran-2-yl)-6-azaindol-3-yl)-oxoacetyl]piperazine] | < 1 µM | 
COc1cnc(-c2cncc(N)n2)c2[nH]cc(C(=O)C(=O)N3CCN(C(=O)c4ccccc4)CC3)c12 [Example 46, 1-benzoyl-4-[(4-methoxy-7-(2-amino-pyrazin-6-yl)-6-azaindol-3-yl)-oxoacetyl]piperazine] | < 1 µM | 
COc1ccc(-c2ccnc3c(C(=O)C(=O)N4CCN(C(=O)c5ccccc5)CC4)c[nH]c23)cc1 [Example 65, 1-(benzoyl)-4-[(7-(4-methoxy)-4-azaindol-3-yl)-oxoacetyl]piperazine] |  | EC50 [2]: < 1 µM
COc1cnc(-c2cnc(C)nc2)c2[nH]cc(C(=O)C(=O)N3CCN(C(=O)c4ccccc4)CC3)c12 [Example 171, 1-benzoyl-4-[(4-methoxy-7-(2-methyl-pyrimidin-5-yl)-6-azaindol-3-yl)-oxoacetyl]piperazine] | < 1 µM | 
O=C(C(=O)N1CCN(C(=O)c2ccccc2)CC1)c1c[nH]c2c(-c3ccncc3)nccc12 [Example 10, 1-(benzoyl)-4-[(7-(pyridin-4-yl)-6-azaindol-3-yl)-oxoacetyl]piperazine] | < 1 µM | 
COc1cnc(Nc2ccccn2)c2[nH]cc(C(=O)C(=O)N3CCN(C(=O)c4ccccc4)CC3)c12 [Example 330] | < 1 µM | 
C[C@@H]1CN(C(=O)c2ccccc2)CCN1C(=O)C(=O)c1c[nH]c2c(-c3cnc(N)cn3)nccc12 [Example 150, (R)-1-benzoyl-3-methyl-4-[(7-(5-amino-pyrazin-2-yl)-6-azaindol-3-yl)-oxoacetyl]piperazine] | < 1 µM | 
COc1cnc(-c2cccnn2)c2[nH]cc(C(=O)C(=O)N3CCN(C(=O)c4ccccc4)CC3)c12 [Example 120, 1-benzoyl-4-[(4-methoxy-7-(pyridazin-3-yl)-6-azaindol-3-yl)-oxoacetyl]piperazine] | < 1 µM | 

Structure (SMILES) | EC50 [1] | also measured
COc1cnc(-c2cnccn2)c2[nH]cc(C(=O)C(=O)N3CCN(C(=O)c4cccc(C)n4)CC3)c12 [Example 201] | < 1 µM | 
COc1cnc(-c2ccsc2)c2[nH]cc(C(=O)C(=O)N3CCN(C(=O)c4ccccc4)CC3)c12 [Example 83, 1benzoyl-4-[(4-methoxy-7-(thiophen-3-yl)-6-azaindol-3-yl)-oxoacetyl]piperazine] | < 1 µM | 
C[C@@H]1CN(C(=O)c2ccccc2)CCN1C(=O)C(=O)c1c[nH]c2c(-c3cccc(O)n3)nccc12 [Example 123] | < 1 µM | 
C[C@@H]1CN(C(=O)c2ccccc2)CCN1C(=O)C(=O)c1c[nH]c2c(-c3ncco3)ccnc12 [Example 126] |  | EC50 [2]: < 1 µM
CCOc1ncc(-c2ncc(OC)c3c(C(=O)C(=O)N4CCN(C(=O)c5ccccc5)CC4)c[nH]c23)s1 [Example 45, 1-benzoyl-4-[(4-methoxy-7-(2-ethoxy-thiazol-5-yl)-6-azaindol-3-yl)-oxoacetyl]piperazine] | < 1 µM | 
COc1cnc(-c2cnccn2)c2[nH]cc(C(=O)C(=O)N3CCN(C(=O)c4ccccn4)C(C)C3)c12 (centres unmarked) [Example 194, 2-methyl-1-picolinoyl-4-[(4-methoxy-7-(pyrazin-2-yl)-6-azaindol-3-yl)-oxoacetyl]piperazine] |  | EC50 [3]: < 1 µM
C[C@@H]1CN(C(=O)c2ccccc2)CCN1C(=O)C(=O)c1c[nH]c2c(-c3cnc(N)nc3)nccc12 [Example 153, (R)-1-benzoyl-3-methyl-4-[(7-(2-amino-pyrimidin-5-yl)-6-azaindol-3-yl)-oxoacetyl]piperazine] | < 1 µM | 
COc1cnc(-c2cnccn2)c2[nH]cc(C(=O)C(=O)N3CCN(C(=O)c4nc(N)n[nH]4)CC3)c12 [Example 198] | < 1 µM | 
COc1cnc(-c2nc(-c3csc(C)n3)n[nH]2)c2[nH]cc(C(=O)C(=O)N3CCN(C(=O)c4ccccc4)[C@H](C)C3)c12 [Example 341] | < 1 µM | EC50 [3]: < 1 µM
Cc1nc(-c2cc(Cl)nc3c(C(=O)C(=O)N4CCN(C(=O)c5ccccc5)C[C@H]4C)c[nH]c23)[nH]c1C [Example 62, 1-benzoyl-3-(R)-methyl-4-[(5-chloro-7-(4,5-dimethyl-imidazol-2-yl)-4-azaindol-3-yl)-oxoacetyl]piperazine] |  | EC50 [2]: < 1 µM
COc1cnc(-c2cnccn2)c2[nH]cc(C(=O)C(=O)N3CCN(C(=O)c4ncccc4C)CC3)c12 [Example 200] | < 1 µM | 
COc1cnc(-c2cnc(C(N)=O)cn2)c2[nH]cc(C(=O)C(=O)N3CCN(C(=O)c4ccccc4)CC3)c12 [Example 55, 1-benzoyl-4-[(4-methoxy-7-(2-aminocarbonyl-pyrazin-5-yl)-6-azaindol-3-yl)-oxoacetyl]piperazine] | < 1 µM | 
O=C(NCCN1CCOCC1)c1cc(-c2ncc(F)c3c(C(=O)C(=O)N4CCN(C(=O)c5ccccc5)CC4)c[nH]c23)n[nH]1 [Example 213] | < 1 µM | 
C[C@@H]1CN(C(=O)c2ccccc2)CCN1C(=O)C(=O)c1c[nH]c2c(-c3ccc(F)cc3)nccc12 [Example 1, 1-benzoyl-3-(R)-methyl-4-[(7-(4-fluorophenyl)-6-azaindol-3-yl)-oxoacetyl]-piperazine] | < 1 µM | inhibition at 10 µM (Human immunodeficiency virus 1, HeLa-CD4/CCR5, read-out: Average % inhibition at 10 μM): 56%
COc1cnc(-c2cscn2)c2[nH]cc(C(=O)C(=O)N3CCN(C(=O)c4ccccn4)CC3)c12 [Example 173, 1-picolinoyl-4-[(4-methoxy-7-(thiazol-4-yl)-6-azaindol-3-yl)-oxoacetyl]piperazine] | < 1 µM | 
O=C(C(=O)N1CCN(C(=O)c2ccccc2)CC1)c1c[nH]c2c(-c3cnccn3)nccc12 [Example 34, 1-benzoyl-4-[(7-(pyrazin-2-yl)-6-azaindol-3-yl)-oxoacetyl]piperazine] | < 1 µM | 
Cc1csc(-c2ccnc3c(C(=O)C(=O)N4CCN(C(=O)c5ccccc5)C[C@H]4C)c[nH]c23)c1 [Example 86, 1-benzoyl-3-(R)-methyl-4-[(7-(4-methyl-thiophen-2-yl)-4-azaindol-3-yl)-oxoacetyl]piperazine] |  | EC50 [2]: < 1 µM
COc1cnc(-c2ccc(C=O)s2)c2[nH]cc(C(=O)C(=O)N3CCN(C(=O)c4ccccc4)CC3)c12 [Example 84, 1-benzoyl-4-[(4-methoxy-7-(5-carbonyl-thiophen-2-yl)-6-azaindol-3-yl)-oxoacetyl]piperazine] | < 1 µM | 
COc1cnc(-n2ccc(O)n2)c2[nH]cc(C(=O)C(=O)N3CCN(C(=O)c4ccccc4)[C@H](C)C3)c12 [Example 257, (R)-1-benzoyl-2-methyl-4-[(4-methoxy-7-(3-hydroxylpyrazol-1-yl)-6-azaindol-3-yl)-oxoacetyl]piperazine] |  | EC50 [3]: < 1 µM
